Laboratory results reported in patent publication US12478586B2, “Small molecular drug-loaded polymer vesicle, preparation method therefor and use thereof” (SOOCHOW UNIVERSITY, priority 2020, dated 2025).
Where a name gives a salt, the structure may show the parent alone.

Experiments:
[1] = tested on: LP-1 multiple myeloma cells; test: CCK-8 cytotoxicity; format: cell-based; conditions: LP-1 cells
Method: The in vitro anti-tumor activity of Dar-Ps-VCR against LP-1 multiple myeloma cells was determined using a CCK-8 kit, with MV4-11 cells as a control. LP-1 cells were first spread in 96-well plates (15,000/well) and placed in an incubator at 37° C. with 5% CO2 for 24 h. After that, 20 μL of Dar-Ps-VCR, Ps-VCR and free VCR containing different Dar surface densities were added to each well, and the final concentrations of VCR in the wells were 0.001, 0.01, 0.05, 0.1, 0.5, 1 and 10 ng/mL. After incubation at 37° C. for 48 h, 10 μL of CCK-8 solution was added to each well to continue the incubation for 4 h. Finally, its absorbance value at 492 nm was tested by an enzyme marker. Cell viability was calculated by the ratio of the absorbance value of the experimental group to the absorbance value of the cells incubated with the addition of PBS, and the experiment was performed in parallel for four groups (mean±SD, […]).

LP-1 cells = test: AnnexinV-FITC/PI apoptosis by flow cytometry; format: cell-based; conditions: VCR 0.5 ng/mL, 48 h
Method: LP-1 cells were first spread in 6-well plates at a density of 2×10^5 cells/well and incubated in the incubator for 24 h. After 24 h, 200 μL of Dar-Ps-VCR, Ps-VCR, and free VCR were added (the in-well concentration of VCR was 0.5 ng/mL), and the cells with only PBS were used as a control. After incubation in the incubator for 48 h, LP-1 cells were collected by centrifugation (800 rpm, 5 min) and washed twice with ice PBS, and finally 200 μL of Binding buffer was added to each sample to resuspend the cells (the cell density was approximately 10^6 cells/mL). After blowing uniformly, 100 μL was taken into the flow tube and 5 μL of AnnexinV-FITC and 10 μL of PI solution were added sequentially, and the cells were stained at room temperature and protected from light for 15 min, then 400 μL of PBS was added and mixed uniformly, and measured by flow cytometry within 1 h. The cells were then stained with PBS for 15 min at room temperature and protected from light for 15 min. Among them, the samples in the PBS group that were treated in a 50° C. water bath for 5 min and fixed with 4% paraformaldehyde for 5 min were used as the early apoptosis group and the late apoptosis group, respectively, and stained for 15 min by adding 5 μL of AnnexinV-FITC solution and 10 μL of PI solution, respectively.

[2] = tested on: LP-1-Luc multiple myeloma mice; test: Anti-tumor effect in orthotopic LP-1-Luc multiple myeloma mice; format: in vivo
Method: Mice were simultaneously weighed.
To investigate the anti-tumor effect of Dar-Ps-VCR in […] LP-1-Luc multiple myeloma mice, treatment experiments were initiated when the bioluminescence intensity reached 1.2×10^6 p/sec/cm^2/sr on day 10 post-inoculation. There were two dosing regimens that maintained the same total VCR administration: one with a VCR dose of 0.25 mg/kg, one injection given on 4 days for a total of 4 injections, denoted as Dar-Ps-VCR (0.25 mg VCR equiv./kg, Q4d); and the other with a VCR dose of 0.50 mg/kg, one injection given on 8 days for a total of 2 injections, denoted as Dar-Ps-VCR (0.50 mg VCR equiv./kg, Q8d). Based on the first dosing regimen, equal VCR doses of Ps-VCR and free VCR, equal equivalents of Dar-Ps, and PBS were used as controls. Each treatment group consisted of 10 […] mice, of which 4 were used for bioluminescence imaging and 6 were used to monitor body weight and observe survival. […] At the end of drug administration, the tumors of mice in the non-targeted Ps-VCR and free VCR groups began to recur, and Luc bioluminescence signals increased rapidly, i.e., 157- and 53-fold by day 39, respectively.

Compound	cell survival ([1]; Dar concentration 9 μg/mL) [%]	IC50 ([1]; Homo sapiens, 48 h, VCR concentration, read-out: LC50 (IC50)) [ng/mL]	apoptosis (LP-1 cells) [%]	median survival ([2]; 0.25 mg VCR equiv./kg, Q4d (Dar-Ps: equal equivalents)) [days]	increase of Luc bioluminescence signal ([2]; by day 39, 0.25 mg VCR equiv./kg, Q4d) [fold]	Luc signal during the administration treatment period ([2]; days 10-22)
free Dar: CD38-targeting monoclonal antibody daratumumab (Dar)	~100					
CC[C@]1(O)C[C@H]2CN(CCc3c([nH]c4ccccc34)[C@@](C(=O)OC)(c3cc4c(cc3OC)N(C=O)[C@H]3[C@@](O)(C(=O)OC)[C@H](OC(C)=O)[C@]5(CC)C=CCN6CC[C@]43[C@@H]65)C2)C1 [free VCR, vincristine sulfate]		1.38	31.4	52	53	no significant increase or even a slight decrease in Luc signal
